Laboratory results as given in patent US20240327407A1, “NOVEL INHIBITORS OF AUTOTAXIN” (CADILA HEAL THCARE LIMITED, priority 2021, published 2024).
pIC50: −log10 of the molar value.

biological target: ATX (Mus musculus (Mouse), UniProt Q9R1E6); assay: Mice serum ATX inhibitory activity (IC50 determination); format: biochemical
Method: ATX Inhibitory activity was determined in a biochemical or whole blood assay as described previously (Bretschneider, T. et al., SLAS Discov 2017, 22, 425). The biochemical reaction consisted of 50 mM Tris (pH 8.0), 3 mM KCl, 1 mM CaCl2, 1 mM Mg Cl2, […] NaCl and 0.1% bovine serum albumin, which was supplemented with 5 nM recombinant rat ATX, 5 μM 18:1 LPC and the test compound (0.1-10 μM). The reaction was stopped at 2 h by the addition of butanol, prior to the RapidFire-MS-based analysis.
The whole blood assay consisted of 45 μL μL heparinized mice/rat whole blood and the test compound (0.12-100 μM). The reaction was stopped after 1 h at 37° C. by addition of 100 μL 40 mM disodium hydrogen phosphate buffer containing 30 mM citric acid (pH 4) and 1 μM 17:0 LPA (internal standard). Afterwards the samples were treated a described above and analysed by LC-MS/MS. The data was analyzed using graph pad prism (v 7.03) to arrive at the half-maximal inhibitory concentrations (IC50) of the test compounds.

pIC50 | SMILES
8.46 | CC(C)[C@@H](NC(=O)c1cc(C(F)(F)F)ccc1F)C(=O)N1CCC2(CC1)CC(=O)NCC2c1ccccc1 (stereo partly drawn) [Compound 163, 2-fluoro-N-((2R)-3-methyl-1-oxo-1-(10-oxo-7-phenyl-3,9-diazaspiro[5.5]undecan-3-yl)butan-2-yl)-5-(trifluoromethyl)benzamide]
7.23 | CC(C)[C@@H](NC(=O)c1cc(C(F)(F)F)ccc1F)C(=O)N1CCC2(CC1)C(=O)N(C)CC2c1ccc2[nH]ncc2c1 (stereo partly drawn) [Compound 58, N-((2R)-1-(4-(1H-indazol-5-yl)-2-methyl-1-oxo-2,8-diazaspiro[4.5]decan-8-yl)-3-methyl-1-oxobutan-2-yl)-2-fluoro-5-(trifluoromethyl)benzamide]
8.18 | CC(C)[C@@H](NC(=O)c1cc(C(F)(F)F)ccc1F)C(=O)N1CCC2(CC1)CN(C)CC2c1ccccc1 (stereo partly drawn) [Compound 62, 2-fluoro-N-((2R)-3-methyl-1-(2-methyl-4-phenyl-2,8-diazaspiro[4.5]decan-8-yl)-1-oxobutan-2-yl)-5-(trifluoromethyl)benzamide]
8.11 | CC(C)[C@@H](NC(=O)c1cc(C(F)(F)F)ccc1F)C(=O)N1CCC2(CC1)CN(C)C[C@H]2c1ccc(F)cc1 [Compound 134, 2-fluoro-N-((R)-1-((S)-4-(4-fluorophenyl)-2-methyl-2,8-diazaspiro[4.5]decan-8-yl)-3-methyl-1-oxobutan-2-yl)-5-(trifluoromethyl)benzamide]
7.95 | CC(C)[C@@H](NC(=O)c1cc(C(F)(F)F)ccc1F)C(=O)N1CCC2(CC1)CC(=O)N(C)CC2c1ccccc1 (stereo partly drawn) [Compound 174, 2-fluoro-N-((2R)-3-methyl-1-(9-methyl-10-oxo-7-phenyl-3,9-diazaspiro[5.5]undecan-3-yl)-1-oxobutan-2-yl)-5-(trifluoromethyl)benzamide]
7.25 | CC(C)[C@@H](NC(=O)c1cc(C(F)(F)F)ccc1F)C(=O)N1CCC2(CC1)C(=O)NCC2c1cccnc1 (stereo partly drawn) [Compound 57, 2-fluoro-N-((2R)-3-methyl-1-oxo-1-(1-oxo-4-(pyridin-3-yl)-2,8-diazaspiro[4.5]decan-8-yl)butan-2-yl)-5-(trifluoromethyl)benzamide]
7.92 | CC(C)[C@@H](NC(=O)c1cc(C(F)(F)F)ccc1F)C(=O)N1CCC2(CC1)CN(C)C[C@@H]2c1ccc(F)cc1 [Compound 133, 2-fluoro-N-((R)-1-((R)-4-(4-fluorophenyl)-2-methyl-2,8-diazaspiro[4.5]decan-8-yl)-3-methyl-1-oxobutan-2-yl)-5-(trifluoromethyl)benzamide]
7.94 | CN1CC(c2ccc(F)cc2)C2(CCN(C(=O)[C@H](NC(=O)c3cc(C(F)(F)F)ccc3F)c3ccccc3)CC2)C1 (stereo partly drawn) [Compound 140, 2-fluoro-N-((1R)-2-(4-(4-fluorophenyl)-2-methyl-2,8-diazaspiro[4.5]decan-8-yl)-2-oxo-1-phenylethyl)-5-(trifluoromethyl)benzamide]
7.04 | CC(C)[C@@H](NC(=O)c1cc(C(F)(F)F)ccc1F)C(=O)N1CCC2(CC1)C(=O)N(C)C(=O)C2c1ccccc1 (stereo partly drawn) [Compound 1, 2-fluoro-N-((2R)-3-methyl-1-(2-methyl-1,3-dioxo-4-phenyl-2,8-diazaspiro[4.5]decan-8-yl)-1-oxobutan-2-yl)-5-(trifluoromethyl)benzamide]
6.29 | CCc1nc2c(C)cc(N3CCN(CC(=O)N4CC(O)C4)CC3)cn2c1N(C)c1nc(-c2ccc(F)cc2)c(C#N)s1 [GLPG1690]
8.16 | CC(C)[C@@H](NC(=O)c1cc(C(F)(F)F)ccc1F)C(=O)N1CCC2(CC1)CN(C)CC2c1ccc2[nH]ncc2c1 (stereo partly drawn) [Compound 65, N-((2R)-1-(4-(1H-indazol-5-yl)-2-methyl-2,8-diazaspiro[4.5]decan-8-yl)-3-methyl-1-oxobutan-2-yl)-2-fluoro-5-(trifluoromethyl)benzamide]
8.47 | Cc1ccnc(C(=O)N[C@@H](C(=O)N2CCC3(CC2)CN(C)CC3c2ccc(F)cc2)C(C)C)c1 (stereo partly drawn) [Compound 129, N-((2R)-1-(4-(4-fluorophenyl)-2-methyl-2,8-diazaspiro-[4.5]decan-8-yl)-3-methyl-1-oxobutan-2-yl)-4-methylpicolinamide]
8.39 | CC(C)C[C@@H](NC(=O)c1cc(C(F)(F)F)ccc1F)C(=O)N1CCC2(CC1)CN(C)CC2c1ccc(F)cc1 (stereo partly drawn) [Compound 147, 2-fluoro-N-((2R)-1-(4-(4-fluorophenyl)-2-methyl-2,8-diazaspiro[4.5]decan-8-yl)-4-methyl-1-oxopentan-2-yl)-5-(trifluoromethyl)benzamide]
7.80 | Cc1ccnc(C(=O)N[C@@H](C(=O)N2CCC3(CC2)CC(=O)N(C)CC3c2ccccc2)C(C)C)c1 (some centres unmarked) [Compound 194]
8.03 | COc1ccc(C2CN(C)CC23CCN(C(=O)[C@H](NC(=O)c2cc(C)ccc2F)C(C)C)CC3)cc1 (stereo partly drawn) [Compound 123, 2-fluoro-N-((2R)-1-(4-(4-methoxyphenyl)-2-methyl-2,8-diazaspiro[4.5]decan-8-yl)-3-methyl-1-oxobutan-2-yl)-5-methylbenzamide]
7.87 | CC(C)[C@@H](NC(=O)c1cc(C(F)(F)F)ccc1F)C(=O)N1CCC2(CC1)CN(C)CC2c1cccnc1 (stereo partly drawn) [Compound 64, 2-fluoro-N-((2R)-3-methyl-1-(2-methyl-4-(pyridin-3-yl)-2,8-diazaspiro[4.5]decan-8-yl)-1-oxobutan-2-yl)-5-(trifluoromethyl)benzamide]
8.66 | Cc1ccc(C2CN(C)CC23CCN(C(=O)[C@H](NC(=O)c2cc(C(F)(F)F)ccc2F)C(C)C)CC3)cc1 (stereo partly drawn) [Compound 136, 2-fluoro-N-((2R)-3-methyl-1-(2-methyl-4-(p-tolyl)-2,8-diazaspiro[4.5]decan-8-yl)-1-oxobutan-2-yl)-5-(trifluoromethyl)benzamide]
8.00 | CC(C)[C@@H](NC(=O)c1cc(C(F)(F)F)ccc1F)C(=O)N1CCC2(CCN(C)CC2c2ccccc2)CC1 (stereo partly drawn) [Compound 220, 2-fluoro-N-((2R)-3-methyl-1-(9-methyl-7-phenyl-3,9-diazaspiro[5.5]-undecan-3-yl)-1-oxobutan-2-yl)-5-(trifluoromethyl)benzamide]
8.96 | CC(C)[C@@H](NC(=O)c1cc(C(F)(F)F)ccc1F)C(=O)N1CCC2(CC1)CN(C)CC2c1ccc(C(=O)O)cc1 (stereo partly drawn) [Compound 132, 4-(8-((2-fluoro-5-(trifluoromethyl)benzoyl)-D-valyl)-2-methyl-2,8-diazaspiro[4.5]decan-4-yl)benzoic acid]
7.47 | CC(C)[C@@H](NC(=O)c1cc(C(F)(F)F)ccc1F)C(=O)N1CCC2(CC1)C(=O)N(C(C)C)CC2c1ccc(F)cc1 (stereo partly drawn) [Compound 111, 2-fluoro-N-((2R)-1-(4-(4-fluorophenyl)-2-isopropyl-1-oxo-2,8-diazaspiro[4.5]decan-8-yl)-3-methyl-1-oxobutan-2-yl)-5-(trifluoromethyl)benzamide]
7.88 | CC(C)[C@@H](NC(=O)c1cc(C(F)(F)F)ccc1F)C(=O)N1CCC2(CC1)C(=O)N(C)CC2c1cccnc1 (stereo partly drawn) [Compound 56, 2-fluoro-N-((2R)-3-methyl-1-(2-methyl-1-oxo-4-(pyridin-3-yl)-2,8-diazaspiro[4.5]decan-8-yl)-1-oxobutan-2-yl)-5-(trifluoromethyl)benzamide]
7.22 | COC(=O)N1CC(c2ccc(F)cc2)C2(CCN(C(=O)[C@H](NC(=O)c3cc(C(F)(F)F)ccc3F)C(C)C)CC2)C1 (stereo partly drawn) [Compound 130, methyl 8-((2-fluoro-5-(trifluoromethyl)benzoyl)-D-valyl)-4-(4-fluorophenyl)-2,8-diazaspiro[4.5]decane-2-carboxylate]
7.76 | CCN1CC(c2ccc(F)cc2)C2(CCN(C(=O)[C@H](NC(=O)c3cc(C(F)(F)F)ccc3F)C(C)C)CC2)CC1=O (stereo partly drawn) [Compound 177, N-((2R)-1-(9-ethyl-7-(4-fluorophenyl)-10-oxo-3,9-diazaspiro[5.5]undecan-3-yl)-3-methyl-1-oxobutan-2-yl)-2-fluoro-5-]
8.77 | COc1ccc(C2CN(C)C(=O)C23CCN(C(=O)[C@H](NC(=O)c2cc(C(F)(F)F)ccc2F)C(C)C)CC3)cc1 (stereo partly drawn) [Compound 114, 2-fluoro-N-((2R)-1-(4-(4-methoxyphenyl)-2-methyl-1-oxo-2,8-diazaspiro[4.5]decan-8-yl)-3-methyl-1-oxobutan-2-yl)-5-(trifluoromethyl)benzamide]
7.65 | CC(C)[C@@H](NC(=O)c1cc(C(F)(F)F)ccc1F)C(=O)N1CCC2(CC1)C(=O)NCC2c1ccc(F)cc1 (stereo partly drawn) [Compound 102, 2-fluoro-N-((2R)-1-(4-(4-fluorophenyl)-1-oxo-2,8-diazaspiro[4.5]decan-8-yl)-3-methyl-1-oxobutan-2-yl)-5-(trifluoromethyl)benzamide]

SMILES | pIC50
CC(C)[C@@H](NC(=O)c1nn(C)c2ccccc12)C(=O)N1CCC2(CC1)CN(C)CC2c1ccc(F)cc1 (stereo partly drawn) [Compound 153, N-((2R)-1-(4-(4-fluorophenyl)-2-methyl-2,8-diazaspiro[4.5]decan-8-yl)-3-methyl-1-oxobutan-2-yl)-1-methyl-1H-indazole-3-carboxamide] | 7.32
